Source: PubChem BioAssay (NCI)
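GI50 = concentration required for 50% inhibition of growth. TGI: total growth inhibition.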

Key:
Assay in all cases: NCI tumour cell line growth inhibition, 384-well format
[1] = test system: SK-MEL-2 melanoma
[2] = test system: K-562 leukemia
[3] = test system: EKVX NSCLC
[4] = test system: KM12 colon
[5] = test system: BT-549 breast
[6] = test system: OVCAR-4 ovarian
[7] = test system: SF-295 CNS
[8] = test system: A549 NSCLC
[9] = test system: A498 renal
[10] = test system: 786-0 renal
[11] = test system: COLO 205 colon
[12] = test system: MCF7 breast
[13] = test system: UO-31 renal
[14] = test system: SK-OV-3 ovarian
[15] = test system: HCT-15 colon
[16] = test system: NCI-H460 NSCLC
[17] = test system: HS 578T breast
[18] = test system: OVCAR-3 ovarian
[19] = test system: SK-MEL-28 melanoma
[20] = test system: NCI-H23 lung
[21] = test system: PC-3 prostate
[22] = test system: SW-620 colon
[23] = test system: MALME-3M melanoma
[24] = test system: MDA-MB-468 breast
[25] = test system: SF-539 CNS
[26] = test system: SK-MEL-5 melanoma
[27] = test system: SN12C renal
[28] = test system: NCI-H522 lung
[29] = test system: IGROV1 ovarian
[30] = test system: HOP-62 NSCLC
[31] = test system: SR leukemia
[32] = test system: UACC-62 melanoma
[33] = test system: HT29 colon
[34] = test system: HCT-116 colon
[35] = test system: ACHN renal
[36] = test system: SF-268 CNS
[37] = test system: OVCAR-8 ovarian
[38] = test system: UACC-257 melanoma
[39] = test system: HOP-92 NSCLC
[40] = test system: T-47D breast
[41] = test system: DU-145 prostate
[42] = test system: SNB-19 CNS
[43] = test system: NCI-H322M lung
[44] = test system: SNB-75 CNS
[45] = test system: MDA-MB-435 melanoma
[46] = test system: OVCAR-5 ovarian
[47] = test system: HL-60(TB) leukemia
[48] = test system: MDA-MB-231 breast
[49] = test system: NCI-H226 lung
[50] = test system: TK-10 renal
[51] = test system: M14 melanoma
[52] = test system: RXF 393 renal
[53] = test system: MOLT-4 leukemia
[54] = test system: CAKI-1 renal

For `CN(C)C1CCN(C(=O)c2ccc(NC(=O)Nc3ccc(-c4nc(N5CCOCC5)nc(N5CCOCC5)n4)cc3)cc2)CC1`, the GI50 [1] was 37.3 nM, the TGI [1] was 268 nM and the GI50 [2] was 42.2 nM. It also gave a TGI [2] of 1820 nM, a GI50 [3] of 40.6 nM and a TGI [3] of 828 nM. The GI50 [4] was 27.7 nM, the TGI [4] was 10.3 µM and the GI50 [5] was 17.6 nM. The TGI [5] was 130 nM, the GI50 [6] was < 10 nM and the TGI [6] was 50.9 nM. For the same compound, the GI50 [7] was 174 nM, the TGI [7] was 607 nM and the GI50 [8] was 22.3 nM. For the same compound, the TGI [8] was 546 nM, the GI50 [9] was 188 nM and the TGI [9] was 943 nM. It also gave a GI50 [10] of 290 nM, a TGI [10] of 2030 nM and a GI50 [11] of 26.7 nM. For the same compound, the TGI [11] was 137 nM, the GI50 [12] was < 10 nM and the TGI [12] was 176 nM. The GI50 [13] was 2220 nM, the TGI [13] was 7.29 µM and the GI50 [14] was < 10 nM. For the same compound, the TGI [14] was 39.8 nM, the GI50 [15] was 3.26 µM and the TGI [15] was > 100 µM. For the same compound, the GI50 [16] was 18.6 nM, the TGI [16] was 1340 nM and the GI50 [17] was < 10 nM. For the same compound, the TGI [17] was 45.5 nM, the GI50 [18] was 12.1 nM and the TGI [18] was 323 nM. It also gave a GI50 [19] of 42.8 nM, a TGI [19] of 1150 nM and a GI50 [20] of 50.8 nM. The TGI [20] was 1120 nM, the GI50 [21] was 18.8 nM and the TGI [21] was 765 nM. It also gave a GI50 [22] of 75.2 nM, a TGI [22] of 10.2 µM and a GI50 [23] of 18.9 nM. The TGI [23] was 73.5 nM, the GI50 [24] was < 10 nM and the TGI [24] was 22.4 nM. For the same compound, the GI50 [25] was < 10 nM, the TGI [25] was 113 nM and the GI50 [26] was 125 nM. For the same compound, the TGI [26] was 390 nM, the GI50 [27] was 30.3 nM and the TGI [27] was 12.4 µM. For the same compound, the GI50 [28] was 24.4 nM, the TGI [28] was 1610 nM and the GI50 [29] was < 10 nM. The TGI [29] was 43.1 nM, the GI50 [30] was 52.1 nM and the TGI [30] was 351 nM. For the same compound, the GI50 [31] was < 10 nM, the TGI [31] was 26.4 nM and the GI50 [32] was 24.9 nM. It also gave a TGI [32] of 142 nM, a GI50 [33] of 28.6 nM and a TGI [33] of 1470 nM. The GI50 [34] was 31.9 nM, the TGI [34] was 1970 nM and the GI50 [35] was 479 nM. For the same compound, the TGI [35] was 5.56 µM, the GI50 [36] was 36.3 nM and the TGI [36] was 1760 nM. For the same compound, the GI50 [37] was 139 nM, the TGI [37] was 2940 nM and the GI50 [38] was 51.9 nM. The TGI [38] was 338 nM, the GI50 [39] was 21.1 nM and the TGI [39] was 118 nM. The GI50 [40] was < 10 nM, the TGI [40] was 11.4 nM and the GI50 [41] was 15 nM. For the same compound, the TGI [41] was 1580 nM, the GI50 [42] was 383 nM and the TGI [42] was 14.4 µM. The GI50 [43] was 19.5 nM, the TGI [43] was 149 nM and the GI50 [44] was < 10 nM. The TGI [44] was 33.9 nM, the GI50 [45] was 23.5 nM and the TGI [45] was 352 nM. The GI50 [46] was 50.9 nM, the TGI [46] was 12.1 µM and the GI50 [47] was 55.4 nM. It also gave a TGI [47] of 227 nM, a GI50 [48] of 11.7 nM and a TGI [48] of 15 µM. The GI50 [49] was 86.5 nM, the TGI [49] was 441 nM and the GI50 [50] was 348 nM. For the same compound, the TGI [50] was 1690 nM, the GI50 [51] was 128 nM and the TGI [51] was 5.25 µM. For the same compound, the GI50 [52] was 25.2 nM, the TGI [52] was 203 nM and the GI50 [53] was 10.7 nM. The TGI [53] was 45.4 nM, the GI50 [54] was 278 nM and the TGI [54] was 1230 nM.
